These results are taken from EP4733303A1, “MUSCARINIC M4 RECEPTOR AGONIST AND USE THEREOF” (Haisco Pharmaceutical Group Co., Ltd., priority 2023, dated 2024).

The target of data set [1] is T1, M4 receptor (Homo sapiens, UniProt P08173).
T1 construct: expressed in transfected cells; host or cells: CHO (M4-CHO cells)
T1 sequence (P08173 1-479): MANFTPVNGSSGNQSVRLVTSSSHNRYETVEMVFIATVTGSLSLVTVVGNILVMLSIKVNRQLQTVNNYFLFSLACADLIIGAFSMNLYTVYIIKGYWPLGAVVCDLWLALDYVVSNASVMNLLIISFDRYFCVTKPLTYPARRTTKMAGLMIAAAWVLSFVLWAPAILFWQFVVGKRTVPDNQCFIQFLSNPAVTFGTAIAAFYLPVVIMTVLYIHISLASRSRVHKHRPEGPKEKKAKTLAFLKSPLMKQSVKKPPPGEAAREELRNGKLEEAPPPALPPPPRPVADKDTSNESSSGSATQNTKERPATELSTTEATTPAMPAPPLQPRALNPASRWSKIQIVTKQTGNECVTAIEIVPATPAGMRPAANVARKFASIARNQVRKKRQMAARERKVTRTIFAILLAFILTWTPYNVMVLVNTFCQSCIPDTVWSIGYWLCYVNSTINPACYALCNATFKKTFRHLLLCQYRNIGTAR
Briefly: PAM agonistic activity of compound on M4 receptor (FLIPR Calcium 6 assay in M4-CHO cells). In kind it is cell-based. The note with it: with acetylcholine (Ach), final concentration 3 nM. An outline of the steps:
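CHO cells expressing M4, plated 16–20 h, loaded 120 min at 37 °C with Calcium 6 dye. Test compound added together with acetylcholine (3 nM final) on FLIPR Tetra; fluorescence read at 515–575 nm. EC50 from nonlinear regression of signal versus concentration.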

A short description of data set [2]: Pharmacokinetic test in rats (plasma and brain). The data set is classed as in vivo, SD rats. An excerpt:
3.1 Experimental animals: male SD rats, about 220 g, 6-8 weeks old, divided into an intravenous group and an intragastric group.
3.2 Experimental design: on the day of the experiment, the SD rats were randomly grouped according to their body weights. […] Table 5. Administration information
The whole blood was centrifuged to separate the plasma; the brain tissue was rinsed with cold physiological saline to remove the residual blood on the surface, drained out and then homogenized. Before analysis and detection, all samples were stored at -80°C, and the samples were quantitatively analysed by LC-MS/MS. Table 6. Pharmacokinetic parameters of test compound in plasma of rats

Data set [3] in a line: Pharmacokinetic test in mice (plasma and brain). The data set is classed as in vivo, C57 mice. An excerpt:
2.1 Experimental animals: male C57 mice, 20-25 g, divided into an intravenous group and an intragastric group.
2.2 Experimental design: on the day of the experiment, the C57 mice were randomly grouped according to their body weights. […] Table 2. Administration information
The whole blood was centrifuged to separate the plasma; the brain tissue was rinsed with cold physiological saline to remove the residual blood on the surface, drained out and then homogenized. Before analysis and detection, all samples were stored at -80°C, and the samples were quantitatively analysed by LC-MS/MS. Table 3. Pharmacokinetic parameters of test compounds in mice

The nature of data set [4]: Pharmacokinetic test in monkeys. The note with it: male cynomolgus monkeys. In kind it is in vivo. As for the experimental part: Experimental animals: male cynomolgus monkeys, 3-5 kg, 3-6 years old, divided into an intravenous group and an intragastric group.
Experimental method: on the day of the experiment, the monkeys were randomly grouped according to their body weights. […] Table 9. Administration information
Before and after the administration, 1.0 mL of blood was taken from the limb veins and placed in an EDTAK2 centrifuge tube. Centrifugation was carried out at 5000 rpm at 4°C for 10 min, and the plasma was collected. […] Before analysis and detection, all samples were stored at -80°C, and the samples were quantitatively analysed by LC-MS/MS. Table 10. Pharmacokinetic parameters of test compound in plasma of monkeys

Setting [5] is: rat, male SD rats, plasma, i.v. 2.5 mg/kg and i.g. 10 mg/kg groups, route of the parameter not given.
Where [6] appears, read: mouse, male C57 mice, plasma, i.v. 2.5 mg/kg and i.g. 10 mg/kg groups, route of the parameter not given.
The mark [7] stands for this setting: cynomolgus monkey, plasma, i.v. 1 mg/kg and i.g. 5 mg/kg groups, route of the parameter not given.

As to `Cc1cc(=O)n(C(F)F)c2c1CN(C(=O)CC1CN(c3ccnc(OC4CC(F)(F)C4)c3)C1)C2` [Compound 128], in data set [1], the EC50 is under 100 nM. The F is listed as over 98% in data set [2] (male SD rats, i.g. 10 mg/kg versus i.v. 2.5 mg/kg); over 98% in data set [3] (male C57 mice, i.g. 10 mg/kg versus i.v. 2.5 mg/kg); 71.4% in data set [4] (i.g. 5 mg/kg versus i.v. 1 mg/kg). Besides, the Kp in data set [2] (rat, brain/plasma, po, rats, i.g. (10 mg/kg), read-out: Brain/plasma ratio) is 0.497; in data set [3] (mouse, brain/plasma, po, mice, i.g. (10 mg/kg), read-out: Brain/plasma ratio), 0.581. In addition, the AUC(0-t) in data set [2] (rat, plasma, po, rats, i.g. (10 mg/kg), read-out: Plasma AUC0-t) was found to be 46100 ng·h/mL; in data set [2] (rat, male SD rats, plasma, i.v. 2.5 mg/kg and i.g. 10 mg/kg groups, route of the parameter not given, read-out: AUC0-t) it was 34000 ng·h/mL; in data set [3] (mouse, plasma, po, mice, i.g. (10 mg/kg), read-out: Plasma AUC0-t) it was 9680 ng·h/mL; in data set [3] (mouse, male C57 mice, plasma, i.v. 2.5 mg/kg and i.g. 10 mg/kg groups, route of the parameter not given, read-out: AUC0-t), 25700 ng·h/mL; in data set [4] (setting [7]) it was 5940 ng·h/mL. Further, the Cmax worked out at 5140 ng/mL in data set [2] (setting [5]), 6030 ng/mL in data set [3] (setting [6]) and 495 ng/mL in data set [4] (setting [7]). Also, the clearance in data set [2] (setting [5]) stood at 6.33 mL/min/kg; in data set [3] (setting [6]), 6.91 mL/min/kg; in data set [4] (setting [7]) it was 10.1 mL/min/kg. For the same compound, the figures for the half-life in data set [2] (setting [5]), in data set [3] (setting [6]) and in data set [4] (setting [7]) were 281 min, 135 min and 431 min, respectively. Further, the “Brain tissue AUC0-t” value is 22917 ng·h/g in data set [2] (rats, i.g. (10 mg/kg)) and 5618 ng·h/g in data set [3] (mice, i.g. (10 mg/kg)).
